Source: ChEMBL document CHEMBL4052691, “Discovery of BMS-961955, an allosteric inhibitor of the hepatitis C virus NS5B polymerase” (Bioorg Med Chem Lett, 2017)

Experiments:
[1] = Apparent permeability of the compound at pH 5.5 by PAMPA; format: physicochemical
[2] = Apparent permeability of the compound at pH 7.4 by PAMPA; format: physicochemical
[3] = Oral bioavailability rat at 10 mg/kg; format: ADME, organism-based; details: in vivo
[4] = (§1) AUC (0 to 6 hrs) in rat at 5 mg/kg, iv; format: ADME, organism-based; parameters: dose 5 mg/kg, time < 6 hr, route intravenous; details: in vivo
[5] = AUC (0 to 24 hrs) in rat at 5 mg/kg, iv; format: ADME, organism-based; parameters: time < 24 hr, dose 5 mg/kg, route intravenous; details: in vivo
[6] = Volume of distribution at steady state in rat at 5 mg/kg, iv; format: ADME, organism-based; details: in vivo, read-out: Vdss
[7] = AUC (0 to 24 hrs) in rat at 10 mg/kg, iv; format: ADME, organism-based; parameters: dose 10 mg/kg, time < 24 hr, route intravenous; details: in vivo
[8] = AUC (0 to 24 hrs) in dog at 1 mg/kg, iv; format: ADME, organism-based, Canis lupus familiaris; parameters: time < 24 hr, dose 1 mg/kg, route intravenous; details: in vivo
[9] = AUC (0 to 24 hrs) in dog at 3 mg/kg, po; format: ADME, organism-based, Canis lupus familiaris; parameters: time < 24 hr, dose 3 mg/kg, route oral; details: in vivo
[10] = Volume of distribution at steady state in dog at 1 mg/kg, iv; format: ADME, organism-based, Canis lupus familiaris; details: in vivo, read-out: Vdss
[11] = Oral bioavailability in dog at 3 mg/kg; format: ADME, organism-based, Canis lupus familiaris; details: in vivo
[12] = AUC (0 to 24 hrs) in cynomolgus monkey at 1 mg/kg, iv; format: ADME, organism-based, Macaca fascicularis; parameters: dose 1 mg/kg, time < 24 hr, route intravenous; details: in vivo
[13] = AUC (0 to 24 hrs) in cynomolgus monkey at 3 mg/kg, […]; format: ADME, organism-based, Macaca fascicularis; parameters: dose 3 mg/kg, time < 24 hr; details: in vivo
[14] = Volume of distribution at steady state in cynomolgus monkey at 1 mg/kg, iv; format: ADME, organism-based, Macaca fascicularis; details: in vivo, read-out: Vdss
[15] = Oral bioavailability in cynomolgus monkey at 3 mg/kg; format: ADME, organism-based, Macaca fascicularis; details: in vivo
Rattus norvegicus = assay: as §1; format: ADME, organism-based; parameters: dose 5 mg/kg, time < 6 hr, route intravenous; details: in vivo, 6 h

Row | SMILES | Papp [1] | Papp [2] | bioavailability [3] | AUC(0-t) at 24 h [5] | other results
1 | CN1CC2CCC(C1)N2C(=O)[C@]12C[C@H]1c1cc(F)ccc1-c1c(C3CCCCC3)c3ccc(C(=O)NS(=O)(=O)C(C)(C)C)cc3n1C2 | 13.5 ×10⁻⁶ cm/s | 23.8 ×10⁻⁶ cm/s | 8% | – | AUC(0-t) at 6 h [4]: 1.3 µM·h
2 | CN1CC2CCC(C1)N2C(=O)[C@]12C[C@H]1c1cc(F)ccc1-c1c(C3CCCCC3)c3ccc(C(=O)NS(=O)(=O)C4CC4)cc3n1C2 | – | – | 23% | 1.51 µM·h | –
3 | CN1CC2CCC(C1)N2C(=O)[C@]12C[C@H]1c1cc(F)ccc1-c1c(C3CCCCC3)c3ccc(C(=O)NS(=O)(=O)C4(C)CC4)cc3n1C2 | 52.3 ×10⁻⁶ cm/s | 59 ×10⁻⁶ cm/s | 52% | 12.3 to 12.4 µM·h | Vd [6]: 3.9 L/kg; AUC(0-t) at 24 h [7]: 12.4 µM·h; AUC(0-t) at 24 h [8]: 25.7 µM·h; AUC(0-t) at 24 h [9]: 62.1 µM·h; Vd [10]: 0.6 L/kg; bioavailability [11]: 84%; AUC(0-t) at 24 h [12]: 2.3 µM·h; AUC(0-t) at 24 h [13]: 3.1 µM·h; Vd [14]: 3.1 L/kg; bioavailability [15]: 48%
4 | CCS(=O)(=O)NC(=O)c1ccc2c(C3CCCCC3)c3n(c2c1)C[C@@]1(C(=O)N2C4CCC2CN(C)C4)C[C@H]1c1cc(F)ccc1-3 | – | – | 13.6% | 0.857 µM·h | –
5 | CN1CC2CCC(C1)N2C(=O)[C@]12C[C@H]1c1cc(F)ccc1-c1c(C3CCCCC3)c3ccc(C(=O)NS(=O)(=O)N4CCC4)cc3n1C2 | – | – | 19% | – | AUC (Rattus norvegicus): 0.5 µM·h
